From article PMC6396489 (Cell Communication and Signaling : CCS, 2019)

How the values were obtained:
[1] = tested on: Src; set-up: method as in PMID 18722484; settings: cited from earlier work
[2] = target: T1, Shp1 (Homo sapiens, UniProt P29350); experiment: SPR competition assay with free GroPIns4P; settings: Shp1 1.2 μM; read-out: EC50 of competition with Shp1 binding to GroPIns4P-Bio chip
T1 construct: the C-terminal truncated form of human Shp1 cDNA (His-Shp1; amino acids 1–529); made in house; host or cells: E. coli BL21(DE3)
T1 sequence (P29350 1-529 isoform P29350-3): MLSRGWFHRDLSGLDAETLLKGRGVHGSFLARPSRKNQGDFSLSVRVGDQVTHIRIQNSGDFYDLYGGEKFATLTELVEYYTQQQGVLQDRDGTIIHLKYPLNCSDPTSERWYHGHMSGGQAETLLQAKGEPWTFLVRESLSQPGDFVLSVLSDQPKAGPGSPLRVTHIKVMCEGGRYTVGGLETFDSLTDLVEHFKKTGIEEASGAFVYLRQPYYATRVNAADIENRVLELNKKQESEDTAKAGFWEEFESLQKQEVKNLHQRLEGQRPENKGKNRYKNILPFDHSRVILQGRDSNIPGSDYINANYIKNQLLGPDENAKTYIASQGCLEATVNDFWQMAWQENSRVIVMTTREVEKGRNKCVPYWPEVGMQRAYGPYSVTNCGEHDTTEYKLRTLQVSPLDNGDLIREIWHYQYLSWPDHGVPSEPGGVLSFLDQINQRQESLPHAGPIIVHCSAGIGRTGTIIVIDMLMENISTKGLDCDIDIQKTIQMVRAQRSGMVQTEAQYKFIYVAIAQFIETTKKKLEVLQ
Description: For the competition experiments, SPR assays were performed at a fixed concentration of Shp1 (1.2 μM) in the presence of increasing concentrations of GroPIns4P (0.0 to 5.0 μM). Both Shp1 and GroPIns4P were dissolved in HBS-EP buffer and incubated for 10 min before injection onto the SA sensor chip. The flow was fixed to 20 μL/min, and the time of injection was 3 min. A solution of 2.0 mM glycine/HCl, pH 3.0, was used in the regeneration step to remove the analyte bond before reusing the sensor chip.

O=P(O)(O)OC1C(O)C(O)C(OP(=O)(O)OCC(O)CO)C(O)C1O (centres unmarked) [GroPIns4P, glycerophosphoinositol 4-phosphate]
direct interaction with Src [1]: no direct interaction
EC50 [2]: ~0.8 µM
